Test results taken from patent publication US11331299B2, “Medicinal use of serrulatane diterpenes” (The University of Sydney, priority 2016, dated 2022).

What was measured:
SMARCA2 (h) bromodomain = molecular target: T1, SMARCA2 (h) bromodomain (Homo sapiens, UniProt P51531); experiment: Epigenetic binding assay, Bromodomain; conditions: for inhibition at 10 µM: read-out: % Inhibition of Control Specific Binding
T1 construct: Bromodomain

BRD4(1) (h) bromodomain = molecular target: T2, BRD4(1) (h) bromodomain (Homo sapiens, UniProt O60885); experiment: Epigenetic binding assay, Bromodomain; conditions: read-out: % Inhibition of Control Specific Binding
T2 construct: Bromodomain

HDAC2 (h) = HDAC2 (h) (Homo sapiens, UniProt Q92769); experiment: Epigenetic enzyme assay, Histone deacetylase (HDACs); format: biochemical; conditions: read-out: % Inhibition of Control Values
G9a (h) = molecular target: T3, G9a (h) (Homo sapiens, UniProt Q96KQ7); experiment: Epigenetic enzyme assay, Methyltransferases (MTs); format: biochemical; conditions: for % Inhibition of Control Values / inhibition at 10 µM: 10 μM; for inhibition at 10 µM: read-out: % Inhibition of Control Values; for IC50: Table 11, inhibition/concentration-response curve
T3 sequence (Q96KQ7 1-1210): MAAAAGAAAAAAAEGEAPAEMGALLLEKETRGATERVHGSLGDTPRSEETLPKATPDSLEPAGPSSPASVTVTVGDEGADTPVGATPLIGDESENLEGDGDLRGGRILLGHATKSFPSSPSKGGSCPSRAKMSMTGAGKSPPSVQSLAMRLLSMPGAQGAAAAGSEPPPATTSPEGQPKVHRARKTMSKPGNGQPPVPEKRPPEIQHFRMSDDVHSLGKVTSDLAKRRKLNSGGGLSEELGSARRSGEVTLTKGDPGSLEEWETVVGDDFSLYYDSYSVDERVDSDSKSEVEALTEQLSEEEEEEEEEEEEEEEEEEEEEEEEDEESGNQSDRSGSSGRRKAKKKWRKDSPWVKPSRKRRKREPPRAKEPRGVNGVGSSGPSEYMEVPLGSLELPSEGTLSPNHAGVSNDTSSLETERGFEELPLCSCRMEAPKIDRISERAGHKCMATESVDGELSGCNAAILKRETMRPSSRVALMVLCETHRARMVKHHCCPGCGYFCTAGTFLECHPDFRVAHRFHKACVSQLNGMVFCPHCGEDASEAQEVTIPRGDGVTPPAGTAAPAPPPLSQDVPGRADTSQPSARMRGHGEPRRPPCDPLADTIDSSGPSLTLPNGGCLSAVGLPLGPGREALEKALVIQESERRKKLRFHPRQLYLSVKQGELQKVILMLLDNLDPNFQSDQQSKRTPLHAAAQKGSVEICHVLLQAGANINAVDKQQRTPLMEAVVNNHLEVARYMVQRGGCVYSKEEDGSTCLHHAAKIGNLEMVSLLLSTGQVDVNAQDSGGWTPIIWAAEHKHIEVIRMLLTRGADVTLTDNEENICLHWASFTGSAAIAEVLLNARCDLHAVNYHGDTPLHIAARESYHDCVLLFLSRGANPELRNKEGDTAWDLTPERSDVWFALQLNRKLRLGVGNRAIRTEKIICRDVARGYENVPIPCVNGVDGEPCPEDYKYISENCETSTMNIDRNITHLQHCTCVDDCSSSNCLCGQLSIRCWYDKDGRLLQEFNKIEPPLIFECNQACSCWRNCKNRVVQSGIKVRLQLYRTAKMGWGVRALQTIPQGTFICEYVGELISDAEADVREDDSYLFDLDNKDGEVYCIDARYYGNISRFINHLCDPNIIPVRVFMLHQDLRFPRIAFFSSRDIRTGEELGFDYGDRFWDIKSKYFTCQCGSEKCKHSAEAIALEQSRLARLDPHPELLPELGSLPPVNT

[1] = molecular target: T4, Glycine N-methyltransferase (h) (Homo sapiens, UniProt Q14749); experiment: Epigenetic enzyme assay, Small molecule methyltransferases; format: biochemical; conditions: read-out: % Inhibition of Control Values
T4 sequence (Q14749 1-295): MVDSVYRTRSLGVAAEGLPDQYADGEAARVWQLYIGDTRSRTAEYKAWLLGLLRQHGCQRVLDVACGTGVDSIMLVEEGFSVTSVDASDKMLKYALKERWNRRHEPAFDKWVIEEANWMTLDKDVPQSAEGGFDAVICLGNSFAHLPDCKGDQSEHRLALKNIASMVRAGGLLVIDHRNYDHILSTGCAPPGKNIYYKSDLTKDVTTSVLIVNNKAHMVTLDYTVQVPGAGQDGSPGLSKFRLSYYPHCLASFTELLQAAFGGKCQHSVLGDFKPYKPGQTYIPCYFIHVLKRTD

USP 21 (h) = molecular target: T5, USP 21 (h) (Homo sapiens, UniProt Q9UK80); experiment: Epigenetic enzyme assay, Ubiquitin modifying enzymes; format: biochemical; conditions: 10 μM; read-out: % Inhibition of Control Values
T5 sequence (Q9UK80 1-565): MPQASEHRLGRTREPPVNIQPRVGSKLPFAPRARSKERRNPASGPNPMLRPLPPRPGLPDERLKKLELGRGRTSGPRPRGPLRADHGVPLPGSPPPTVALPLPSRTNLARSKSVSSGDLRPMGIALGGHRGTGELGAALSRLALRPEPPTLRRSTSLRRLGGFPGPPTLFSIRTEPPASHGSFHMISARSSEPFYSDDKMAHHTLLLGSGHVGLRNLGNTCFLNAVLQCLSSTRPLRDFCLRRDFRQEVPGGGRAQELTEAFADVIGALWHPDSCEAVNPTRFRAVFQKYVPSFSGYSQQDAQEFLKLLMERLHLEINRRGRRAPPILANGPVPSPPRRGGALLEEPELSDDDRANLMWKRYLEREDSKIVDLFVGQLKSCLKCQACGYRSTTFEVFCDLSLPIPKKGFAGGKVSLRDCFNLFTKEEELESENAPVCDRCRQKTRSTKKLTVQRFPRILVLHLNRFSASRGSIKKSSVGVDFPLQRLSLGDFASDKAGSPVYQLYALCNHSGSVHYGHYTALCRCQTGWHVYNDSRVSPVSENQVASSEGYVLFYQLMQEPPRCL

T1 sequence (P51531 1378-1506 limits assumed): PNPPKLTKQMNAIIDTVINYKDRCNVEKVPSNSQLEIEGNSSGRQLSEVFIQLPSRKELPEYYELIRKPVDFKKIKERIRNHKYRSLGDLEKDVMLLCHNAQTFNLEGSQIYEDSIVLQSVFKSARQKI
Chain of HDAC2 (h) (Q92769 whole entry): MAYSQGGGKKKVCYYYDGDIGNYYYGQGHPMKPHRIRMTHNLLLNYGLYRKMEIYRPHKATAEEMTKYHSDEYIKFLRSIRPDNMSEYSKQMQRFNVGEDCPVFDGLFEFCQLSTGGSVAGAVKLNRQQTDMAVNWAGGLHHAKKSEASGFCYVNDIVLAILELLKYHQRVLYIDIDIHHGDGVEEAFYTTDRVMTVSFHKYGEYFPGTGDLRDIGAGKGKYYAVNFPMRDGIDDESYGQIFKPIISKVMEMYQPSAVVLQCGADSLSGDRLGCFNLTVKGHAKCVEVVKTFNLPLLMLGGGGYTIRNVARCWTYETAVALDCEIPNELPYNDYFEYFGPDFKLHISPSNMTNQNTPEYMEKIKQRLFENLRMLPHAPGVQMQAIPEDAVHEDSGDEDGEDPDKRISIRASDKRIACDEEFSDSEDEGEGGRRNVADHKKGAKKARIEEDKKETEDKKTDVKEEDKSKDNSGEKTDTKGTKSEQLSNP

SMILES | % Inhibition of Control Specific Binding (SMARCA2 (h) bromodomain; 10 μM) | inhibition at 10 µM (SMARCA2 (h) bromodomain) [%] | inhibition at 10 µM (BRD4(1) (h) bromodomain) [%] | inhibition at 10 µM (HDAC2 (h)) [%] | % Inhibition of Control Values (G9a (h)) | inhibition at 10 µM (G9a (h)) [%] | IC50 (G9a (h)) [µM] | inhibition at 10 µM [1] [%] | inhibition at 10 µM (USP 21 (h)) [%]
CC(C)=CCC[C@H](CO)[C@@H]1CC[C@@H](C)c2c1cc(C)c(O)c2O [Compound 1, 7,8,18-trihydroxyserrulat-14-ene] | significant inhibitory activity | 83 | 49 | 1 | strong inhibitor | 86 | 11 | 55 | -18
CC(C)=CCC[C@@H]1C(O)Oc2c(C)cc(O)c3c2[C@H]1CC[C@H]3C (stereo partly drawn) [Compound 2, 5,18-epoxyserrulat-14-en-8,18-diol] |  | 21 | 11 | 0 | weaker | 64 | 5.4 | 5 | 3
CC(C)=CCC[C@@H]1COc2c(C)cc(O)c3c2[C@H]1CC[C@H]3C [Compound 3, 5,18-epoxy-8-hydroxyserrulat-14-ene] |  | 18 | 8 | -2 | weaker | 49 |  | -11 | 3
